BindingDB's records for doi:10.1016/j.bmcl.2003.11.074 (Kaohsiung Medical University, 2004)
pIC50: −log10 of the molar value.

Assays:
[1] = Inhibitory effect of compound on the release of Beta-glucuronidase in rat neutrophils stimulated with fMLP/CB
Lysozyme C-1 = target: T1, Lysozyme C-1 (Rattus norvegicus, UniProt P00697); test: ChEBML_100187
T1 sequence (P00697 whole entry): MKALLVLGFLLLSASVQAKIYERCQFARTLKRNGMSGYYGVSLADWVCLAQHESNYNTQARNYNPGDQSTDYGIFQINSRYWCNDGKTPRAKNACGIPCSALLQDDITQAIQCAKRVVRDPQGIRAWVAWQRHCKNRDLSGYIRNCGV
Excerpt: Inhibitory effect of compound on the release of lysozyme in rat neutrophils stimulated with fMLP/CB

| Compound | pIC50 [1] | pIC50 (Lysozyme C-1) |
| --- | --- | --- |
| O=c1c(O)c(-c2ccc(O)cc2)oc2cc(OC3O[C@H](CO)[C@@H](O)[C@H](O)[C@H]3O)cc(O)c12 (stereo not given in full) | < 4.52 | < 4.52 |
| COc1cc(O)ccc1-c1coc2cc(O)cc(O)c2c1=O [5,7-Dihydroxy-3-(4-hydroxy-2-methoxy-phenyl)-chromen-4-one] | < 4.52 | < 4.52 |
| C[C@](O)(CO)c1cc2c3c(ccc2o1)[C@@H]1COc2cc(O)ccc2[C@@H]1O3 [2-((11bR,12R)-9-Hydroxy-5b,11b-dihydro-6H-3,7,12-trioxa-benzo[a]cyclopenta[i]fluoren-2-yl)-propane-1,2-diol] | < 4.52 | < 4.52 |
| O=c1cc(-c2ccc(O)cc2)oc2cc(O)ccc12 [7-hydroxy-2-(4-hydroxyphenyl)-4H-chromen-4-one] |  | < 4.52 |

Now those with a higher pIC50 (Lysozyme C-1), led by results:

| pIC50 [1] | pIC50 (Lysozyme C-1) | Compound |
| --- | --- | --- |
|  | 4.75 | O=c1cc(-c2ccc(O)cc2)oc2cc(O)cc(O)c12 [Naringenin, 18] |
|  | 5.01 | O=c1c(-c2ccc(O)cc2O)coc2cc(O)cc(O)c12 [3-(2,4-Dihydroxy-phenyl)-5,7-dihydroxy-chromen-4-one] |
|  | 5.05 | CN1CCN(CCCN2c3ccccc3Sc3ccc(C(F)(F)F)cc32)CC1 |
